Patent US10131652B2, “Pyrimidinyloxy benzene derivatives as herbicides” (E. I. DU PONT DE NEMOURS AND COMPANY, priority 2014, dated 2018)

Legend:
Format in all cases: in vivo
[1] = system: Italian ryegrass (Lolium multiflorum); assay: Test B pre-/postemergence plant response
Outline: (§1)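 Evaluation is visual, about 10 days after application, rating injury from 0 (none) to 100 (complete control) relative to untreated controls. Application was a preemergence soil spray on seeded pots or a postemergence spray on one- to two-leaf plants.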

kochia (Kochia scoparia) = assay: Test B pre-/postemergence plant response
Outline: as §1

[2] = system: ragweed (common ragweed, Ambrosia elatior); assay: Test B pre-/postemergence plant response
Outline: as §1

[3] = system: Italian ryegrass (Lolium multiflorum); assay: Test D pre-/postemergence plant response
Outline: (§2)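 Each compound, in non-phytotoxic solvent with surfactant, was sprayed onto soil right after sowing or onto young plants 2 to 18 cm tall. After 13 to 15 days under greenhouse conditions, effects were judged visually against controls on a 0 (no effect) to 100 (complete control) scale.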

[4] = system: barnyardgrass (Echinochloa crus-galli); assay: Test D pre-/postemergence plant response
Outline: as §2

[5] = system: blackgrass (Alopecurus myosuroides); assay: Test D pre-/postemergence plant response
Outline: as §2

corn (Zea mays) = assay: Test D pre-/postemergence plant response
Outline: as §2

[6] = system: galium (catchweed bedstraw, Galium aparine); assay: Test D pre-/postemergence plant response
Outline: as §2

[7] = system: giant foxtail (Setaria faberii); assay: Test D pre-/postemergence plant response
Outline: as §2

[8] = system: large (Lg) crabgrass (Digitaria sanguinalis); assay: Test D pre-/postemergence plant response
Outline: as §2

[9] = system: oilseed rape (Brassica napus); assay: Test D pre-/postemergence plant response
Outline: as §2

[10] = system: pigweed (Amaranthus retroflexus); assay: Test D pre-/postemergence plant response
Outline: as §2

[11] = system: ragweed (common ragweed, Ambrosia elatior); assay: Test D pre-/postemergence plant response
Outline: as §2

[12] = system: yellow nutsedge (Cyperus esculentus); assay: Test D pre-/postemergence plant response
Outline: as §2

[13] = 125 g ai/ha, postemergence, 0 to 100 scale, 0 no effect, 100 complete control
[14] = Postemergence, 500 g ai/ha, 0 to 100 scale (0 no effect, 100 complete control)
[15] = Preemergence, 125 g ai/ha, 0 to 100 scale (0 no effect, 100 complete control)
[16] = Preemergence, 500 g ai/ha, 0 to 100 scale where 0 is no effect and 100 is complete control
[17] = Postemergence, 31 g ai/ha, scale 0 to 100 (0 no effect, 100 complete control)
[18] = Postemergence, 62 g ai/ha, scale 0 to 100, 0 no effect, 100 complete control
[19] = Postemergence, 125 g ai/ha, scale 0 to 100, 0 no effect, 100 complete control
[20] = Preemergence, 16 g ai/ha, scale 0 to 100 (0 no effect, 100 complete control)
[21] = Preemergence, 31 g ai/ha, scale 0 to 100 (0 no effect, 100 complete control)
[22] = Preemergence, 62 g ai/ha, scale 0 to 100 (0 no effect, 100 complete control)

With `Clc1cnc(Oc2ccccc2-c2cc(C3CC3)on2)nc1` [Compound 183] the “Plant response rating, Ryegrass, Italian” value [1, 13] was 40, the “Plant response rating, Ryegrass, Italian” value [1, 14] was 70 and the “Ryegrass, Italian plant response rating” value [1, 15] was 20. The “Plant response rating, Ryegrass, Italian” value [1, 16] was 40, the “Plant response rating, Kochia” value (kochia (Kochia scoparia); [13]) was 100 and the “Plant response rating, Kochia” value (kochia (Kochia scoparia); [14]) was 100. For the same compound, the “Kochia plant response rating” value (kochia (Kochia scoparia); [15]) was 80, the “Plant response rating, Kochia” value (kochia (Kochia scoparia); [16]) was 100 and the “Plant response rating, Ragweed” value [2, 13] was 20. The “Plant response rating, Ragweed” value [2, 14] was 30, the “Ragweed plant response rating” value [2, 15] was 0 and the “Plant response rating, Ragweed” value [2, 16] was 60. For the same compound, the “Plant response rating (scale 0 to 100), Ryegrass, Italian” value ([3]; Postemergence, 16 g ai/ha) was 0, the “Ryegrass, Italian plant response rating” value [3, 17] was 0 and the “Ryegrass, Italian plant response rating” value [3, 18] was 5. For the same compound, the “Plant response rating, Ryegrass, Italian” value [3, 19] was 10, the “Plant response rating (scale 0 to 100), Ryegrass, Italian” value ([3]; Preemergence, 125 g ai/ha) was 50 and the “Plant response rating, Ryegrass, Italian” value [3, 20] was 0. The “Plant response rating, Ryegrass, Italian” value [3, 21] was 0, the “Plant response rating, Ryegrass, Italian” value [3, 22] was 15 and the “Plant response rating (scale 0 to 100), Barnyardgrass” value ([4]; Postemergence, 16 g ai/ha) was 5. For the same compound, the “Barnyardgrass plant response rating” value [4, 17] was 5, the “Plant response rating, Barnyardgrass” value [4, 18] was 5 and the “Plant response rating, Barnyardgrass” value [4, 19] was 5. The “Plant response rating (scale 0 to 100), Barnyardgrass” value ([4]; Preemergence, 125 g ai/ha) was 90, the “Plant response rating, Barnyardgrass” value [4, 20] was 5 and the “Plant response rating, Barnyardgrass” value [4, 21] was 5. The “Plant response rating, Barnyardgrass” value [4, 22] was 30, the “Plant response rating (scale 0 to 100), Blackgrass” value ([5]; Postemergence, 16 g ai/ha) was 0 and the “Blackgrass plant response rating” value [5, 17] was 5. The “Plant response rating, Blackgrass” value [5, 18] was 5, the “Plant response rating, Blackgrass” value [5, 19] was 20 and the “Plant response rating (scale 0 to 100), Blackgrass” value ([5]; Preemergence, 125 g ai/ha) was 50. For the same compound, the “Plant response rating, Blackgrass” value [5, 20] was 0, the “Plant response rating, Blackgrass” value [5, 21] was 0 and the “Plant response rating, Blackgrass” value [5, 22] was 0. For the same compound, the “Plant response rating (scale 0 to 100), Corn” value (corn (Zea mays); Postemergence, 16 g ai/ha) was 10, the “Corn plant response rating” value (corn (Zea mays); [17]) was 15 and the “Plant response rating, Corn” value (corn (Zea mays); [18]) was 15. For the same compound, the “Plant response rating, Corn” value (corn (Zea mays); [19]) was 20, the “Plant response rating (scale 0 to 100), Corn” value (corn (Zea mays); Preemergence, 125 g ai/ha) was 5 and the “Plant response rating, Corn” value (corn (Zea mays); [20]) was 0. The “Plant response rating, Corn” value (corn (Zea mays); [21]) was 0, the “Plant response rating, Corn” value (corn (Zea mays); [22]) was 0 and the “Plant response rating (scale 0 to 100), Galium” value ([6]; Postemergence, 16 g ai/ha) was 65. The “Galium plant response rating” value [6, 17] was 65, the “Plant response rating, Galium” value [6, 18] was 95 and the “Plant response rating, Galium” value [6, 19] was 95. For the same compound, the “Plant response rating (scale 0 to 100), Galium” value ([6]; Preemergence, 125 g ai/ha) was 95, the “Plant response rating, Galium” value [6, 20] was 50 and the “Plant response rating, Galium” value [6, 21] was 50. The “Plant response rating, Galium” value [6, 22] was 95, the “Plant response rating (scale 0 to 100), Foxtail, Giant” value ([7]; Postemergence, 16 g ai/ha) was 5 and the “Foxtail, Giant plant response rating” value [7, 17] was 5. For the same compound, the “Plant response rating, Foxtail, Giant” value [7, 18] was 5, the “Plant response rating, Foxtail, Giant” value [7, 19] was 5 and the “Plant response rating (scale 0 to 100), Foxtail, Giant” value ([7]; Preemergence, 125 g ai/ha) was 100. The “Plant response rating, Foxtail, Giant” value [7, 20] was 5, the “Plant response rating, Foxtail, Giant” value [7, 21] was 35 and the “Plant response rating, Foxtail, Giant” value [7, 22] was 80. The “Plant response rating (scale 0 to 100), Crabgrass, Large” value ([8]; Postemergence, 16 g ai/ha) was 5, the “Crabgrass, Large plant response rating” value [8, 17] was 5 and the “Plant response rating, Crabgrass, Large” value [8, 18] was 5. The “Plant response rating, Crabgrass, Large” value [8, 19] was 10, the “Plant response rating (scale 0 to 100), Crabgrass, Large” value ([8]; Preemergence, 125 g ai/ha) was 100 and the “Plant response rating, Crabgrass, Large” value [8, 20] was 5. For the same compound, the “Plant response rating, Crabgrass, Large” value [8, 21] was 70, the “Plant response rating, Crabgrass, Large” value [8, 22] was 98 and the “Plant response rating (scale 0 to 100), Oilseed Rape” value ([9]; Postemergence, 16 g ai/ha) was 5. For the same compound, the “Oilseed Rape plant response rating” value [9, 17] was 85, the “Oilseed Rape plant response rating” value [9, 18] was 100 and the “Plant response rating, Oilseed Rape” value [9, 19] was 100. For the same compound, the “Plant response rating (scale 0 to 100), Oilseed Rape” value ([9]; Preemergence, 125 g ai/ha) was 100, the “Plant response rating, Oilseed Rape” value [9, 20] was 50 and the “Plant response rating, Oilseed Rape” value [9, 21] was 100. The “Plant response rating, Oilseed Rape” value [9, 22] was 100, the “Plant response rating (scale 0 to 100), Pigweed” value ([10]; Postemergence, 16 g ai/ha) was 55 and the “Pigweed plant response rating” value [10, 17] was 85. For the same compound, the “Pigweed plant response rating” value [10, 18] was 85, the “Plant response rating, Pigweed” value [10, 19] was 95 and the “Plant response rating (scale 0 to 100), Pigweed” value ([10]; Preemergence, 125 g ai/ha) was 100. For the same compound, the “Plant response rating, Pigweed” value [10, 20] was 50, the “Plant response rating, Pigweed” value [10, 21] was 60 and the “Plant response rating, Pigweed” value [10, 22] was 100. For the same compound, the “Plant response rating (scale 0 to 100), Ragweed” value ([11]; Postemergence, 16 g ai/ha) was 15, the “Ragweed plant response rating” value [11, 17] was 35 and the “Ragweed plant response rating” value [11, 18] was 60. For the same compound, the “Plant response rating, Ragweed” value [11, 19] was 65, the “Plant response rating (scale 0 to 100), Ragweed” value ([11]; Preemergence, 125 g ai/ha) was 10 and the “Plant response rating, Ragweed” value [11, 20] was 0. The “Plant response rating, Ragweed” value [11, 21] was 0, the “Plant response rating, Ragweed” value [11, 22] was 0 and the “Plant response rating (scale 0 to 100), Nutsedge, Yellow” value ([12]; Postemergence, 16 g ai/ha) was 5. For the same compound, the “Nutsedge, Yellow plant response rating” value [12, 17] was 5, the “Nutsedge, Yellow plant response rating” value [12, 18] was 5 and the “Plant response rating, Nutsedge, Yellow” value [12, 19] was 5. The “Plant response rating (scale 0 to 100), Nutsedge, Yellow” value ([12]; Preemergence, 125 g ai/ha) was 5, the “Plant response rating, Nutsedge, Yellow” value [12, 20] was 0 and the “Plant response rating, Nutsedge, Yellow” value [12, 21] was 0. For the same compound, the “Plant response rating, Nutsedge, Yellow” value [12, 22] was 0.
